Measured values reported in the NIST ThermoML archive (doi:10.1016/j.fluid.2019.05.003).

Assay: xn = mol fraction of the nth substance listed
Details: 101 kPa, Liquid; for viscosity: Falling or rolling sphere viscometry; for mass density: Vibrating tube method

C[N+]1(CCO)CCOCC1.[Br-] [N-methyl-N-(2-hydroxyethyl)morpholinium bromide] + O
Details | mass density [kg/m3] | viscosity [mPa·s]
298.15 K, x1 = 0.023 | 1078.7 | 1.173
298.15 K, x1 = 0.038 | 1121 | 1.482
298.15 K, x1 = 0.051 | 1150.9 | 1.716
298.15 K, x1 = 0.075 | 1197.8 | 2.345
298.15 K, x1 = 0.097 | 1232 | 3.195
298.15 K, x1 = 0.124 | 1264.8 | 4.717
298.15 K, x1 = 0.157 | 1297.5 | 7.331
298.15 K, x1 = 0.197 | 1328.8 | 14.15
298.15 K, x1 = 0.227 | 1345.7 | 20.61
303.15 K, x1 = 0.023 | 1076.7 | 1.058
303.15 K, x1 = 0.038 | 1118.8 | 1.33
303.15 K, x1 = 0.051 | 1148.6 | 1.536
303.15 K, x1 = 0.075 | 1195.3 | 2.087
303.15 K, x1 = 0.097 | 1229.3 | 2.831
303.15 K, x1 = 0.124 | 1262 | 4.126
303.15 K, x1 = 0.157 | 1294.6 | 6.314
303.15 K, x1 = 0.197 | 1325.9 | 12.14
303.15 K, x1 = 0.227 | 1342.8 | 17.39
308.15 K, x1 = 0.023 | 1074.6 | 0.962
308.15 K, x1 = 0.038 | 1116.5 | 1.206
308.15 K, x1 = 0.051 | 1146.2 | 1.385
308.15 K, x1 = 0.075 | 1192.7 | 1.878
308.15 K, x1 = 0.097 | 1226.6 | 2.526
308.15 K, x1 = 0.124 | 1259.2 | 3.653
308.15 K, x1 = 0.157 | 1291.7 | 5.635
308.15 K, x1 = 0.197 | 1322.9 | 10.46
308.15 K, x1 = 0.227 | 1339.7 | 14.76
313.15 K, x1 = 0.023 | 1072.3 | 0.88
313.15 K, x1 = 0.038 | 1114.1 | 1.101
313.15 K, x1 = 0.051 | 1143.6 | 1.26
313.15 K, x1 = 0.075 | 1190 | 1.7
313.15 K, x1 = 0.097 | 1223.8 | 2.278
313.15 K, x1 = 0.124 | 1256.4 | 3.255
313.15 K, x1 = 0.157 | 1288.8 | 4.938
313.15 K, x1 = 0.197 | 1319.9 | 9.042
313.15 K, x1 = 0.227 | 1336.7 | 12.6
318.15 K, x1 = 0.023 | 1069.8 | 0.81
318.15 K, x1 = 0.038 | 1111.6 | 1.011
318.15 K, x1 = 0.051 | 1141 | 1.154
318.15 K, x1 = 0.075 | 1187.3 | 1.547
318.15 K, x1 = 0.097 | 1221 | 2.062
318.15 K, x1 = 0.124 | 1253.5 | 2.921
318.15 K, x1 = 0.157 | 1285.8 | 4.371
318.15 K, x1 = 0.197 | 1316.9 | 7.869
318.15 K, x1 = 0.227 | 1333.7 | 10.85
323.15 K, x1 = 0.023 | – | 0.754
323.15 K, x1 = 0.038 | – | 0.933
323.15 K, x1 = 0.051 | – | 1.061
323.15 K, x1 = 0.075 | – | 1.416
323.15 K, x1 = 0.097 | – | 1.88
323.15 K, x1 = 0.124 | – | 2.641
323.15 K, x1 = 0.157 | – | 3.899
323.15 K, x1 = 0.197 | – | 6.877
323.15 K, x1 = 0.227 | – | 9.429
